The values that follow come from US9034921B2, “Diphenylmethane derivatives as SGLT2 inhibitors” (GREEN CROSS CORPORATION, priority 2011, dated 2015).

SMILES strings stand for the structures. Structures can show the parent of a compound that is named as a salt.

human SGLT2, sequence (P31639 whole entry): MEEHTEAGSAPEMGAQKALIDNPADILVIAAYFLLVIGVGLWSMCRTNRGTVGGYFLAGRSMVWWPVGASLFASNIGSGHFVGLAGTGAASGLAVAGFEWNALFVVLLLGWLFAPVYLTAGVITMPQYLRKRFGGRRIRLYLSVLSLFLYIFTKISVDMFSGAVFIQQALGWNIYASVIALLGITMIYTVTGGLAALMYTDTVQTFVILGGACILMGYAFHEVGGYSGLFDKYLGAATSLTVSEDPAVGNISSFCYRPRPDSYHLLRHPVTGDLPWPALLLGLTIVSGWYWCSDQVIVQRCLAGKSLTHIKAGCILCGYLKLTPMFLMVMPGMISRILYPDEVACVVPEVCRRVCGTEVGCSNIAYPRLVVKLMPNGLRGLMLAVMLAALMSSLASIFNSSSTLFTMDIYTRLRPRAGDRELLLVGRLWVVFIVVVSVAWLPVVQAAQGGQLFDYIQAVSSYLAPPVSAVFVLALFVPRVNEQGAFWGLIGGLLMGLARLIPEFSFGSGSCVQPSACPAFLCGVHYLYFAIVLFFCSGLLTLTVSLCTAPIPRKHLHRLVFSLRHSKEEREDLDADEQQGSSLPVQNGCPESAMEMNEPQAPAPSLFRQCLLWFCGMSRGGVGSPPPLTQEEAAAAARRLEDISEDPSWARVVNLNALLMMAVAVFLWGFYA

This experiment concerns the target human SGLT2 (Homo sapiens (Human), UniProt P31639). Kind of experiment: Inhibitory effects on human SGLT2 activities (14C-AMG uptake, sodium-dependent glucose transport assay). The settings on record: CHO cells stably expressing hSGLT2, 37° C., 2 h, single determinations. The class given is cell-based. The procedure, abridged:
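CHO cells stably expressing hSGLT2 were preincubated 10 min at 37 °C in choline (Na+-free) buffer, then exposed 2 h at 37 °C to compound in Na+ uptake buffer with 8 μM 14C-AMG and 1 mM unlabeled AMG. Radioactivity was scintillation counted; IC50 came from nonlinear regression.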
For the compound `C=Cc1ccc(Cc2cc([C@@H]3O[C@H](CO)[C@@H](O)[C@H](O)[C@H]3O)c3c(c2Cl)OCC3)cc1` [Example E171, (2S,3R,4R,5S,6R)-2-(7-Chloro-6-(4-vinylbenzyl)-2,3-dihydrobenzofuran-4-yl)-6-(hydroxymethyl)tetrahydro-2H-pyran-3,4,5-triol], 0.366 nM corresponded to half-maximal inhibition (IC50).

For the compound `OC[C@H]1O[C@@H](c2cc(Cc3ccc(C4CC4)cc3)c(Cl)c3c2CCO3)[C@H](O)[C@@H](O)[C@@H]1O` [Example E172, (2S,3R,4R,5S,6R)-2-(7-Chloro-6-(4-cyclopropylbenzyl)-2,3-dihydrobenzofuran-4-yl)-6-(hydroxymethyl)tetrahydro-2H-pyran-3,4,5-triol], the IC50 (commonly the concentration needed to halve the response being measured) came to 0.463 nM.

Consider `OC[C@H]1O[C@@H](c2cc(Cc3ccc(C4CC4)cc3)c(Cl)c3ccoc23)[C@H](O)[C@@H](O)[C@@H]1O` [Example E173, (2S,3R,4R,5S,6R)-2-(4-Chloro-5-(4-cyclopropylbenzyl)benzofuran-7-yl)-6-(hydroxymethyl)tetrahydro-2H-pyran-3,4,5-triol], for which it took 18.1 nM to reach half-maximal inhibition (IC50).

On to `CCCc1ccc(Cc2cc([C@@H]3O[C@H](CO)[C@@H](O)[C@H](O)[C@H]3O)c3occc3c2Cl)cc1` [Example E174, (2S,3R,4R,5S,6R)-2-(4-Chloro-5-(4-propylbenzyl)benzofuran-7-yl)-6-(hydroxymethyl)tetrahydro-2H-pyran-3,4,5-triol], for which the midpoint of inhibition, the IC50, lay at 574 nM.

`CC(C)(O)c1ccc(Cc2cc([C@@H]3O[C@H](CO)[C@@H](O)[C@H](O)[C@H]3O)c3c(c2Cl)OCC3)cc1` [Example E175, (2S,3R,4R,5S,6R)-2-(7-Chloro-6-(4-(2-hydroxypropan-2-yl)benzyl)-2,3-dihydrobenzofuran-4-yl)-6-(hydroxymethyl)tetrahydro-2H-pyran-3,4,5-triol] gave an IC50 of 2.03 nM.

As to `OC[C@H]1O[C@@H](c2cc(Cc3ccc(C(F)F)cc3)c(Cl)c3c2CCO3)[C@H](O)[C@@H](O)[C@@H]1O` [Example E176, (2S,3R,4R,5S,6R)-2-(7-Chloro-6-(4-(difluoromethyl)benzyl)-2,3-dihydrobenzofuran-4-yl)-6-(hydroxymethyl)tetrahydro-2H-pyran-3,4,5-triol], inhibition was half-maximal at 1.14 nM (IC50).

`CC(F)(F)c1ccc(Cc2cc([C@@H]3O[C@H](CO)[C@@H](O)[C@H](O)[C@H]3O)c3c(c2Cl)OCC3)cc1` [Example E177, (2S,3R,4R,5S,6R)-2-(7-Chloro-6-(4-(1,1-difluoroethyl)benzyl)-2,3-dihydrobenzofuran-4-yl)-6-(hydroxymethyl)tetrahydro-2H-pyran-3,4,5-triol] displayed an IC50 of 0.91 nM.

Compound `Cc1c(Cc2ccc(C3CC3)cc2)cc([C@@H]2O[C@H](CO)[C@@H](O)[C@H](O)[C@H]2O)c2c1OCC2` [Example E178, (2S,3R,4R,5S,6R)-2-(6-(4-Cyclopropylbenzyl)-7-methyl-2,3-dihydrobenzofuran-4-yl)-6-(hydroxymethyl)tetrahydro-2H-pyran-3,4,5-triol] came in with an IC50 of 1.16 nM.

Turning to `C#CC(C)(O)c1ccc(Cc2cc([C@@H]3O[C@H](CO)[C@@H](O)[C@H](O)[C@H]3O)c3c(c2Cl)OCC3)cc1` (stereo partly drawn) [Example E179, (2S,3R,4R,5S,6R)-2-(7-Chloro-6-(4-(2-hydroxybut-3-yn-2-yl)benzyl)-2,3-dihydrobenzofuran-4-yl)-6-(hydroxymethyl)tetrahydro-2H-pyran-3,4,5-triol], the IC50 amounted to 5.2 nM.

Compound `C=C(C)c1ccc(Cc2cc([C@@H]3O[C@H](CO)[C@@H](O)[C@H](O)[C@H]3O)c3c(c2Cl)OCC3)cc1` [Example E180, (2S,3R,4R,5S,6R)-2-(7-Chloro-6-(4-(prop-1-en-2-yl)benzyl)-2,3-dihydrobenzofuran-4-yl)-6-(hydroxymethyl)tetrahydro-2H-pyran-3,4,5-triol] gave a half-maximal inhibitory concentration (IC50) of 0.574 nM.

`CC(C)c1ccc(Cc2cc([C@@H]3O[C@H](CO)[C@@H](O)[C@H](O)[C@H]3O)c3c(c2Cl)OCC3)cc1` [Example E181, (2S,3R,4R,5S,6R)-2-(7-Chloro-6-(4-isopropylbenzyl)-2,3-dihydrobenzofuran-4-yl)-6-(hydroxymethyl)tetrahydro-2H-pyran-3,4,5-triol] showed an IC50 of 0.794 nM.

`C#Cc1ccc(Cc2cc([C@@H]3O[C@H](CO)[C@@H](O)[C@H](O)[C@H]3O)c3c(c2Cl)OCC3)cc1` [Example E182, (2S,3R,4R,5S,6R)-2-(7-Chloro-6-(4-ethynylbenzyl)-2,3-dihydrobenzofuran-4-yl)-6-(hydroxymethyl)tetrahydro-2H-pyran-3,4,5-triol] came in with an IC50 of 1.03 nM.

Regarding `CNCc1ccc(Cc2cc([C@@H]3O[C@H](CO)[C@@H](O)[C@H](O)[C@H]3O)c3c(c2Cl)OCC3)cc1` [Example E183, (2S,3R,4R,5S,6R)-2-(7-Chloro-6-(4-((methylamino)methyl)benzyl)-2,3-dihydrobenzofuran-4-yl)-6-(hydroxymethyl)tetrahydro-2H-pyran-3,4,5-triol trifluoro acetic acid salt], 122 nM corresponded to half-maximal inhibition (IC50).

`CN(C)Cc1ccc(Cc2cc([C@@H]3O[C@H](CO)[C@@H](O)[C@H](O)[C@H]3O)c3c(c2Cl)OCC3)cc1` [Example E184, (2S,3R,4R,5S,6R)-2-(7-Chloro-6-(4-((dimethylamino)methyl)benzyl)-2,3-dihydrobenzofuran-4-yl)-6-(hydroxymethyl)tetrahydro-2H-pyran-3,4,5-triol trifluoro acetic acid salt]: the IC50 amounted to 162 nM.

Take `OC[C@H]1O[C@@H](c2cc(Cc3ccc(CN4CC4)cc3)c(Cl)c3c2CCO3)[C@H](O)[C@@H](O)[C@@H]1O` [Example E185, (2S,3R,4R,5S,6R)-2-(6-(4-(Aziridin-1-ylmethyl)benzyl)-7-chloro-2,3-dihydrobenzofuran-4-yl)-6-(hydroxymethyl)tetrahydro-2H-pyran-3,4,5-triol trifluoro acetic acid salt]: the IC50 was found to be 164 nM.

Consider `N#Cc1ccc(Cc2cc([C@@H]3O[C@H](CO)[C@@H](O)[C@H](O)[C@H]3O)c3c(c2Cl)OCC3)cc1` [Example E186, 4-((7-Chloro-4-((2S,3R,4R,5S,6R)-3,4,5-trihydroxy-6-(hydroxymethyl)tetrahydro-2H-pyran-2-yl)-2,3-dihydrobenzofuran-6-yl)methyl)benzonitrile], for which the IC50 is 6.06 nM.

In the case of `CCCc1ccc(Cc2cc([C@@H]3O[C@H](CO)[C@@H](O)[C@H](O)[C@H]3O)c3c(c2Cl)OCC3)cc1` [Example E187, (2S,3R,4R,5S,6R)-2-(7-Chloro-6-(4-propylbenzyl)-2,3-dihydrobenzofuran-4-yl)-6-(hydroxymethyl)tetrahydro-2H-pyran-3,4,5-triol], the IC50 stood at 1.17 nM.

Compound `CN(C)c1ccc(Cc2cc([C@@H]3O[C@H](CO)[C@@H](O)[C@H](O)[C@H]3O)c3c(c2Cl)OCC3)cc1` [Example E190, (2S,3R,4R,5S,6R)-2-(7-Chloro-6-(4-(dimethylamino)benzyl)-2,3-dihydrobenzofuran-4-yl)-6-(hydroxymethyl)tetrahydro-2H-pyran-3,4,5-triol] displayed an IC50 of 1.11 nM.

The compound `OC[C@H]1O[C@@H](c2cc(Cc3ccc4c(c3)OCCO4)c(Cl)c3c2OCC3)[C@H](O)[C@@H](O)[C@@H]1O` [Example E191, (2S,3R,4R,5S,6R)-2-(4-Chloro-5-((2,3-dihydrobenzo[b][1,4]dioxin-6-yl)methyl)-2,3-dihydrobenzofuran-7-yl)-6-(hydroxymethyl)tetrahydro-2H-pyran-3,4,5-triol] had an IC50 of 1.57 nM.

The compound `OC[C@H]1O[C@@H](c2cc(Cc3ccc(O)cc3)c(Cl)c3c2CCO3)[C@H](O)[C@@H](O)[C@@H]1O` [Example E192, (2S,3R,4R,5S,6R)-2-(7-Chloro-6-(4-hydroxybenzyl)-2,3-dihydrobenzofuran-4-yl)-6-(hydroxymethyl)tetrahydro-2H-pyran-3,4,5-triol] came in with an IC50 of 1.63 nM.

As for `OCCCOc1ccc(Cc2cc([C@@H]3O[C@H](CO)[C@@H](O)[C@H](O)[C@H]3O)c3c(c2Cl)OCC3)cc1` [Example E193, (2S,3R,4R,5S,6R)-2-(7-Chloro-6-(4-(3-hydroxypropoxy)benzyl)-2,3-dihydrobenzofuran-4-yl)-6-(hydroxymethyl)tetrahydro-2H-pyran-3,4,5-triol], the IC50 is 1.87 nM.

Regarding `CCCOc1ccc(Cc2cc([C@@H]3O[C@H](CO)[C@@H](O)[C@H](O)[C@H]3O)c3c(c2Cl)OCC3)cc1` [Example E194, (2S,3R,4R,5S,6R)-2-(7-Chloro-6-(4-propoxybenzyl)-2,3-dihydrobenzofuran-4-yl)-6-(hydroxymethyl)tetrahydro-2H-pyran-3,4,5-triol], the IC50 is 1.22 nM.

Regarding `COc1ccc(Cc2cc([C@@H]3O[C@H](CO)[C@@H](O)[C@H](O)[C@H]3O)c3c(c2Cl)C(=O)CO3)cc1` [Example E195, 4-Chloro-5-(4-methoxybenzyl)-7-((2S,3R,4R,5S,6R)-3,4,5-trihydroxy-6-(hydroxymethyl)tetrahydro-2H-pyran-2-yl)benzofuran-3(2H)-one], 35.1 nM corresponded to half-maximal inhibition (IC50).

As to `COc1ccc(Cc2cc([C@@H]3O[C@H](CO)[C@@H](O)[C@H](O)[C@H]3O)c3c(c2Cl)C(O)CO3)cc1` (stereo partly drawn) [Example E196, (2S,3R,4R,5S,6R)-2-(4-Chloro-3-hydroxy-5-(4-methoxybenzyl)-2,3-dihydrobenzofuran-7-yl)-6-(hydroxymethyl)tetrahydro-2H-pyran-3,4,5-triol], the IC50 is 3.56 nM.

`CN(C)c1ccc(Cc2cc([C@@H]3O[C@H](CO)[C@@H](O)[C@H](O)[C@H]3O)c3c(c2Cl)CCO3)cc1` [Example E197, (2S,3R,4R,5S,6R)-2-(4-Chloro-5-(4-(dimethylamino)benzyl)-2,3-dihydrobenzofuran-7-yl)-6-(hydroxymethyl)tetrahydro-2H-pyran-3,4,5-triol] came in with an IC50 of 3.22 nM.

In turn, `OC[C@H]1O[C@@H](c2cc(Cc3ccc(OCCOC4CC4)cc3)c(Cl)c3c2CCO3)[C@H](O)[C@@H](O)[C@@H]1O` [Example E198, (2S,3R,4R,5S,6R)-2-(7-Chloro-6-(4-(2-cyclopropoxyethoxy)benzyl)-2,3-dihydrobenzofuran-4-yl)-6-(hydroxymethyl)tetrahydro-2H-pyran-3,4,5-triol] showed an IC50 of 2.02 nM.
